Assay results: patent US6391899B1, “Compounds and compositions for treating tissue ischemia” (North Shore—Long Island Jewish Research Institute, priority 1998, dated 2002)
pEC50, pIC50: −log10 of the molar value. Read-outs that look alike come from different tables or passages of the source.

What was measured:
[1] = test system: cultured hippocampal neurons; experiment: NMDA neurotoxicity in cultured hippocampal neurons (trypan blue); assay type: cell-based
Protocol: When aminoguanidine was added to primary neuronal cultures treated with N-methy-D-aspartic acid (NMDA), no attenuation of cytotoxicity was observed (Table III). […] Cultured hippocampal neurons (12-15 days in vitro) were exposed to NMDA (500 μM) for 5 min in MEM (without serum) supplemented with glutamine (100 μM) and glycine (10 μM), rinsed in Earle's Basic Salt Solution, and incubated under standard conditions for 24 hr (37° C.). Neuronal survival was assessed microscopically, by counting a sample of cell somas for uptake vs. exclusion of trypan blue. Aminoguanidine or the non-competitive excitatory amino acid receptor antagonist, MK-801, was added just prior to NMDA and in the final rinse at the concentrations shown. Data are mean±s.e. of nine wells from three replicate experiments.

polyamine oxidase = experiment: Polyamine oxidase activity in ischemic brain homogenates (conversion of added spermine, HPLC); assay type: biochemical, rat; settings: for polyamine oxidase activity in ischemic brain homogenate (FIG. 1): 1 mM added 5 minutes prior to spermine; for pIC50: homogenates of ischemic brain, inhibitor added 5 minutes prior to spermine, read-out: I.C.50 for polyamine oxidase activity
Protocol: To measure tissue polyamine oxidase activity, brain homogenates were prepared from the anatomic region perfused by the middle cerebral artery, and total polyamine oxidase activity determined using a method described previously (Seiler and Bolkenius, Neurochem. Res. 10:529-544, 1985; Seiler et al., Med. Biol. 59:334-346, 198 1; and […] et al., J. Neurosci. Res. 28:434-441, 1991), relying on the metabolic conversion of added spermine.

glial cells (HTB14) = experiment: Apoptosis detection in glial cells (TUNEL flow cytometry, DNA fragmentation); assay type: cell-based, human; settings: for development of TUNEL-positivity in 3-aminopropanal-treated glial cells: iNOS inhibitor added, cytofluorography
Protocol: (§1) Additional evidence of apoptosis by flow cytometric detection of DNA strand breaks was obtained using the terminal deoxynucleotidyl taansferase mediated dUTP nick end labeling TUNEL) method (Gavrieli et al., J. Cell. Biol 119:493-501, 1992). Terminal deoxynucleotidyl transferase mediated dUTP nick end labeling (TUNEL) staining was performed on cell cultures treated with 3-aminopropanal, as indicated. Cells were harvested and collected by centrifugation at 1,500 rpm for 5 min. The pellets were fixed with 1×ORTHO Permeafix (Orthodiagnostics) at room temperature for 40 min. After washing with Dulbecco's phosphate-buffered saline containing 1% bovine serum albumin (PBS-BSA), cells were stained by the TUNEL method using the Oncor Apop Tag Direct Fluorescein kit (Oncor), in accordance with the manufacturer's instructions. A negative control was performed by preparing a reaction solution that was devoid of TdT. A Becton Dickinson flow cytometer was used for all analyses; five to ten thousand events (ungated) were collected according to a single color procedure.
(§2) DNA samples from HTB11 or HTB14 cells (20-30×10^6 cells) were assayed for strand breakage by resuspending harvested cells (treated with 3-AP or control) in a reaction buffer containing proteinase K, and incubating overnight at 55° C. RNase was added to a final concentration of […] and the samples were incubated at 37° C. for one hour. DNA was extracted three times with phenol/chloroform and twice with chloroform and precipitated in two volumes of chilled 100% ethanol and 0.3M sodium acetate (pH 5.2). The DNA was resuspended in 50 μl of dH2O, fractionated by 1.5% agarose gel electrophoresis, and stained with SYBR Green I nucleic acid stain (Molecular Probes).
(§3) There was also no evidence of apoptosis as measured with Annexin V, a method used to detect loss of cell membrane phospholipid asymmetry that has be associated with apoptosis. Annexin V/propidium iodide (PI) staining was performed using a kit in accordance to the manufacturer's instructions (Me Apoptosis Detection Kit, R&D Systems, Minneapolis). Cells were analyzed by flow cytometry within one hour of completion of staining. The AnnexinV-FITC and PI signals were quantitated independently according to a two-color flow cytometric procedure.

rat brain cortex = settings: for protection against spermine-mediated intracortical damage, systemic administration: i.p. treatment, intracortical spermine 25 μg, infarct volume 48 hr; for cell necrosis and apoptosis at the injection zone (eosin, TUNEL staining): intracortical microinjection, histology 24 hr
[2] = test system: neuronal cell cultures (HTB11); settings: HTB11 cells, overnight incubation
[3] = test system: glial cell cultures (HTB14); settings: for inhibition of 3-aminopropanal-induced cell death: HTB14, 3 hours pretreatment, then 3-aminopropanal 5 hours, MTT
focal cerebral ischemia = settings: for volume of brain tissue infarcted vs vehicle-treated controls: i.p. beginning 15 minutes after onset of ischemia, total dose PICVA-25 and PICVA-27 200 mg/kg, PICVA-13 400 mg/kg
iNOS = biological target: T1, iNOS (Mus musculus, UniProt P29477); experiment: iNOS activity in RAW 264.7 cell lysates; assay type: biochemical; settings: 1 mM
T1 construct: iNOS activity measured in RAW 264.7 cell lysates; endogenous in cells; host or cells: RAW 264.7 cell lysates

[4] = test system: neuronal cell cultures (HTB11); experiment: Apoptosis and cell death detection in neuronal cells (TUNEL, Annexin V, DNA electrophoresis, scatter analysis); assay type: cell-based, human; settings: for induction of apoptosis in neuronal cells: HTB11, TUNEL, Annexin V, camptothecin 15 μg/ml for 20 hr
Protocol: as §1
as §2, with “The DNA was resuspended in 50 μl of dH2O, fractionated by 1.5% agarose gel electrophoresis, and stained with SYBR Green I nucleic acid stain (Molecular Probes).” left out
as §3, with “Annexin V/propidium iodide (PI) staining was performed using a kit in accordance to the manufacturer's instructions (Me Apoptosis Detection Kit, R&D Systems, Minneapolis).” left out

[5] = test system: glial cell cultures (HTB14); experiment: Toxicity of test compounds in parallel glial cultures incubated without 3-AP; assay type: cell-based, human; settings: Table V; HTB14, parallel cultures without 3-AP
Protocol: In an alternative embodiment of the screening assay of Example 3, various concentrations of the test compound (e.g. 10-1000 μM) are incubated with the indicator cells in presence of a fixed concentration fo 3-AP (e.g, 200 μM).

[6] = test system: glial cell cultures (HTB14); experiment: cells; settings: Homo sapiens, read-out: 50% Effective dose (protection against 3-AP)
[7] = test system: primary rat astroglial cell cultures; experiment: 3-aminopropanal cytotoxicity in primary astroglial cultures; assay type: cell-based
[8] = test system: intracerebral TNF synthesis; experiment: Intracerebral TNF synthesis after central administration; assay type: in vivo; settings: centrally administered; data not illustrated
[9] = with NMDA (500 μM) 5 min, MK-801 20 μM or aminoguanidine 1000 μM, 24 hr
[10] = 25 μg in 2 μl intracortical, assessed 48 hr later

T1 sequence (P29477 whole entry): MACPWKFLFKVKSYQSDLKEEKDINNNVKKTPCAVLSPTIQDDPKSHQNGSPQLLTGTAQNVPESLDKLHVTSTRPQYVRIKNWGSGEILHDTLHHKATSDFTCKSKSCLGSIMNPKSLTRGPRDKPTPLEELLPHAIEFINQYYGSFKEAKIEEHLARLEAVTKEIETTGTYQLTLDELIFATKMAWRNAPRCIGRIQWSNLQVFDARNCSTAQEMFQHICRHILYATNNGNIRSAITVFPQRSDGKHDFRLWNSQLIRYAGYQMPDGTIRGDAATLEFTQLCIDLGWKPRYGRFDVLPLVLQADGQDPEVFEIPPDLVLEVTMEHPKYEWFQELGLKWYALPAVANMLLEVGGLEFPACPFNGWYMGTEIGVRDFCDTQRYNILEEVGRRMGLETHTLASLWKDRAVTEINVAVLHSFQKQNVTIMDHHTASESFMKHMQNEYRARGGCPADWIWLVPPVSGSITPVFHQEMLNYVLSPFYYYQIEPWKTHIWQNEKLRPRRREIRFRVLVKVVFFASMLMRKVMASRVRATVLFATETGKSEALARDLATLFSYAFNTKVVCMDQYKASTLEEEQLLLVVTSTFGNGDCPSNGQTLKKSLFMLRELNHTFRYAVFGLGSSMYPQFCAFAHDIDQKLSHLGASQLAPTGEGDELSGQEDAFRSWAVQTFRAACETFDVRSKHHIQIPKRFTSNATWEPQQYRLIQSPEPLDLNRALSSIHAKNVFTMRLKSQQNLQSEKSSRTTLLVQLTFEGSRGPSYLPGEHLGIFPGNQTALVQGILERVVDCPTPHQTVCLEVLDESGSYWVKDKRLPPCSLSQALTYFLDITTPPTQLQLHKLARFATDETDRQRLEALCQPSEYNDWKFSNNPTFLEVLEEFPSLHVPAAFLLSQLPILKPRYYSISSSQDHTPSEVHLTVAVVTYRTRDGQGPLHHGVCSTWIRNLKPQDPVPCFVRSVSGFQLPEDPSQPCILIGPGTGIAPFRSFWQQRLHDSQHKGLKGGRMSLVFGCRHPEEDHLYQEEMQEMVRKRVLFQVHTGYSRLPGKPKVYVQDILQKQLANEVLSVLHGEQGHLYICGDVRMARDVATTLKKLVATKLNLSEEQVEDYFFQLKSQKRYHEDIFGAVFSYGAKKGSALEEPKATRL

Question: How did the “Neurotoxicity (% dead)” value ([1]; NMDA (500 μM) alone, 5 min exposure, 24 hr) turn out when `CN[C@H](CC(=O)O)C(=O)O` [NMDA, N-methy-D-aspartic acid] was run?
Answer: 88 ± 4 % dead

Question: What does the source list for `N=C(N)NN` [aminoguanidine]?
Answer: polyamine oxidase activity in ischemic brain homogenate (FIG. 1) (polyamine oxidase): inhibited; pIC50 (polyamine oxidase): 3.40; development of TUNEL-positivity in 3-aminopropanal-treated glial cells (glial cells (HTB14)): failed to attenuate; Neurotoxicity (% dead) [1, 9]: 79 ± 4 % dead; Neurotoxicity (% dead) ([1]; without NMDA, aminoguanidine 1000 μM alone): 7 ± 2 % dead; protection against intracortical spermine-mediated cell death, intracortical administration (rat brain cortex; given intracortically simultaneously with spermine): conferred significant protection; protection against spermine-mediated intracortical damage, systemic administration (rat brain cortex): conferred significant protection; effect on direct cytotoxicity of intracortical 3-aminopropanal (rat brain cortex; intracortical 3-aminopropanal): failed to significantly attenuate; effect on spermine-induced cell necrosis and apoptosis (histology) (rat brain cortex; intracortical spermine): significantly inhibited; LD50 for 3-aminopropanal in the presence of the PAO inhibitor vs without [2]: similar

Question: How did the “brain damage after intracortical microinjection (TTC staining)” value (“brain damage” below) (rat brain cortex; [10]) turn out when `NCCCCN` [putrescine] was run?
Answer: cell death was not observed

Question: And the “cell necrosis and apoptosis at the injection zone (eosin, TUNEL staining)” value (rat brain cortex)?
Answer: not observed

Question: `C[C@]12N[C@H](Cc3ccccc31)c1ccccc12` [MK-801] was tested. Which “Neurotoxicity (% dead)” value [1, 9] did it give?
Answer: 8 ± 3 % dead

Question: `NC(=O)c1cc[n+](CC(=O)c2ccccc2)cc1C(N)=O` [AP21, N-(2-phenyl-2-oxoethyl)-3,4-dicarboxyamide-pyridinium bromide] was tested. Which pEC50 ([3]; read-out: 50% Effective dose (protection against 3-AP), Table V, HTB14, fixed 3-AP (e.g. 200 μM)) did it give?
Answer: 4.00

Question: Which “cell necrosis and apoptosis at the injection zone (eosin, TUNEL staining)” value (rat brain cortex) does the source give for `NCCCNCCCCNCCCN` [spermine] here?
Answer: caused cell necrosis and apoptosis

Question: And the “brain damage” value (rat brain cortex; rat, in vivo)?
Answer: brain tissue damage

Question: Which “volume of brain tissue infarcted vs vehicle-treated controls” value (focal cerebral ischemia) does the source give for `O=C(C[n+]1ccsc1)c1ccccc1.[Br-]` [p25, 3-(2-phenyl-2-oxoethyl)-thiazolium bromide] here?
Answer: significantly reduced

Question: What about the “mortality associated with treatment in the in vivo screening tests” value (focal cerebral ischemia; rats with focal cerebral ischemia) of the same compound?
Answer: 38%

Question: How did the “polyamine oxidase activity in ischemic brain homogenate (FIG. 1)” value (polyamine oxidase) turn out when `CCN(CC)CCCC(C)Nc1ccnc2cc(Cl)ccc12` (stereo not shown) [chloroquine] was run?
Answer: inhibited

Question: And the pIC50 (polyamine oxidase)?
Answer: 4.40

Question: And the iNOS activity (iNOS)?
Answer: 11800±900 DPM/mg protein

Question: And the “protection against spermine-mediated intracortical damage, systemic administration” value (rat brain cortex)?
Answer: conferred significant protection

Question: What about the “systemic homeostatic responses to cerebral ischemia (blood pressure, heart rate, body temperature, arterial blood gases)” value (focal cerebral ischemia; rat, in vivo) of the same compound?
Answer: did not significantly alter

Question: How did the “inhibition of 3-aminopropanal-induced cell death” value [3] turn out when Ac-DEVD-CHO was run?
Answer: not

Question: How did the “development of TUNEL-positivity in 3-aminopropanal-treated glial cells” value (glial cells (HTB14)) turn out when `CNC(=N)NCCC[C@H](N)C(=O)O` [L-NMMA, L-N^G-monomethylarginine] was run?
Answer: failed to attenuate

Question: `CC[C@@]1(O)C(=O)OCc2c1cc1n(c2=O)Cc2cc3ccccc3nc2-1` [camptothecin] was tested. Which “induction of apoptosis in neuronal cells” value [4] did it give?
Answer: Apoptosis was induced

Question: What does the source list for `O=C(O)c1cc(Br)c[n+](CC(=O)c2ccccc2)c1.[Br-]` [AP22, N-(2-phenyl-2-oxoethyl)-3-bromo-5-carboxypyridinium bromide]?
Answer: 50% Toxic dose [5]: 1 mM; pEC50 [6]: 3.70

Question: For Ac-YVAD-CMK, which “inhibition of 3-aminopropanal-induced cell death” value [3] is on record?
Answer: conferred dose-dependent inhibition

Question: For `O=C(C[n+]1ccccc1)c1ccccc1.[Br-]` [p27a, N-(2-phenyl-2-oxoethyl)-pyridinium bromide], which “50% Toxic dose” value [5] is on record?
Answer: 5 mM

Question: And the “mortality associated with treatment in the in vivo screening tests” value (focal cerebral ischemia; Lewis, rat, in vivo)?
Answer: 25%

Question: And the “volume of brain tissue infarcted vs vehicle-treated controls” value (focal cerebral ischemia)?
Answer: significantly reduced

Question: What about the pEC50 [6] of the same compound?
Answer: 3.37

Question: How did the “cytotoxic LD50” value [7] turn out when `NCCC=O` [3-aminopropanal] was run?
Answer: 80 ± 9 µM

Question: What about the “glial cells stained TUNEL-positive” value (glial cells (HTB14); 13 hours of exposure to 275 μM) of the same compound?
Answer: 76%

Question: And the “apoptosis-specific DNA fragmentation” value (glial cells (HTB14); HTB-14 glial cells exposed to 3-aminopropanal)?
Answer: apoptosis-specific DNA fragmentation pattern was observed

Question: What about the “induction of apoptosis in neuronal cells” value [4] of the same compound?
Answer: did not induce apoptosis

Question: What about the “cell death by forward scatter/side scatter analysis” value ([4]; HTB11 neurons after 3-aminopropanal treatment) of the same compound?
Answer: 55.7%

Question: What about the “intracerebral TNF synthesis” value [8] of the same compound?
Answer: directly stimulated

Question: And the “cell necrosis and apoptosis at the injection zone (eosin, TUNEL staining)” value (rat brain cortex)?
Answer: both cellular necrosis and programmed cell death

Question: What about the “brain damage” value (rat brain cortex; rat, in vivo) of the same compound?
Answer: caused significant cytotoxicity

Question: With `NCCCCNCCCN` [spermidine] as the compound, how does the “brain damage” value (rat brain cortex; [10]) read?
Answer: brain tissue damage
